Reference: patent publication EP0385662B1, “Heterocycles with inhibitory activity of 5-lipoxygenase” (ZENECA LIMITED, priority 1989, dated 1990)

How the values were obtained:
[1] = system: 5-LO; test: Test c): ex vivo variation of test b), oral administration, blood collection, A23187 challenge, radioimmunoassay of LTB4; assay type: in vivo
Experimental: (§1) As stated previously, the heterocycles of the formula I are inhibitors of the enzyme 5-LO. […] This test provides a measure of the intrinsic inhibitory properties against soluble 5-LO in an extracellular environment. • b) An in vitro assay system involving incubating a test compound with heparinised human blood, prior to challenge with the calcium ionophore A23187 and then indirectly measuring the inhibitory effects on 5-LO by assaying the amount of L TB4 using the specific radioimmunoassay described by Carey and Forder (F. Carey and R.A. Forder, Brit. J. Pharmacol. 1985, 84, 34P) which involves the use of a protein-L TB4 conjugate produced using the procedure of Young et alia (Prostaglandins, 1983, 26(4), 605-613). The effects of a test compound on the enzyme cyclooxygenase (which is involved in the alternative metabolic pathway for arachidonic acid and gives rise to prostaglandins, thromboxanes and related metabolites) may be measured at the same time using the specific radioimmunoassay for thromboxane B2(TxB2) described by Carey and Forder (see above). This test provides an indication of the effects of a test compound against 5-LO and also cyclooxygenase in the presence of blood cells and proteins. It permits the selectivity of the inhibitory effect on 5-LO or cyclooxygenase to be assessed. • c) An ex vivo assay system, which is a variation of test b) above, involving administration of a test compound (usually orally as the suspension produced when a solution of the test compound in dimethylsulphoxide is added to carboxymethylcellulose), blood collection, heparinisation, challenge with A23187 and radioimmunoassay of L TB4 and TxB2. […]

[2] = target: T1, 5-LO (Homo sapiens, UniProt P09917); test: Test b): in vitro heparinised human blood challenged with calcium ionophore A23187, radioimmunoassay of LTB4; assay type: cell-based; settings: A23187 challenge, read-out: IC50 against LTB4
T1 construct: incubating a test compound with heparinised human blood, prior to challenge with the calcium ionophore A23187; endogenous in cells; host or cells: leukocytes of heparinised human whole blood
T1 sequence (P09917 1-674): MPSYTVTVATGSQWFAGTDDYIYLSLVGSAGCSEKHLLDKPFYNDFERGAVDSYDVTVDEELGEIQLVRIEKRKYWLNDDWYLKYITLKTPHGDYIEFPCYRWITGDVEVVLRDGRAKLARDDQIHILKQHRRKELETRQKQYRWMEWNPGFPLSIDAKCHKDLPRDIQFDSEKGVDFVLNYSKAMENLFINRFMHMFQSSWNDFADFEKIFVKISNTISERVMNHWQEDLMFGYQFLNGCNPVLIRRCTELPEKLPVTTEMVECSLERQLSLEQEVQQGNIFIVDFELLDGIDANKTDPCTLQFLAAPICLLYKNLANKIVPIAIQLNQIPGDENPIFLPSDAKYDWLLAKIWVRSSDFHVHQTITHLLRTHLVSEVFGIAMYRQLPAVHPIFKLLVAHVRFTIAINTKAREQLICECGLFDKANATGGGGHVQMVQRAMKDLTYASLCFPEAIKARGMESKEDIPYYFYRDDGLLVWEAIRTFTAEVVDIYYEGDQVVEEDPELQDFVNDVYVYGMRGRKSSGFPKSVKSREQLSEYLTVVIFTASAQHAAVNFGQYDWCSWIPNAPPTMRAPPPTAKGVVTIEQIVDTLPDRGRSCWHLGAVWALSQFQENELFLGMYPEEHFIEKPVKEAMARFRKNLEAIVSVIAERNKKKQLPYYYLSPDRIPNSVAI
Experimental: as §1, with “J. Pharmacol. 1985, 84, 34P) which involves the use of a protein-L TB4 conjugate produced using the procedure of Young et alia (Prostaglandins, 1983, 26(4), 605-613).” left out, “This test provides an indication of the effects of a test compound against 5-LO and also cyclooxygenase in the presence of blood cells and proteins.” left out

[3] = target: T2, cyclooxygenase (Homo sapiens, UniProt P23219); test: Test b): in vitro heparinised human blood challenged with A23187, radioimmunoassay of thromboxane B2 (TxB2); assay type: cell-based; settings: A23187 challenge, read-out: IC50 against TxB2
T2 construct: may be measured at the same time using the specific radioimmunoassay for thromboxane B2(TxB2); endogenous in cells; host or cells: blood cells (platelets) of heparinised human whole blood
Experimental: as §1, with “J. Pharmacol. 1985, 84, 34P) which involves the use of a protein-L TB4 conjugate produced using the procedure of Young et alia (Prostaglandins, 1983, 26(4), 605-613).” left out, “This test provides an indication of the effects of a test compound against 5-LO and also cyclooxygenase in the presence of blood cells and proteins.” left out

T2 sequence (P23219 24-599): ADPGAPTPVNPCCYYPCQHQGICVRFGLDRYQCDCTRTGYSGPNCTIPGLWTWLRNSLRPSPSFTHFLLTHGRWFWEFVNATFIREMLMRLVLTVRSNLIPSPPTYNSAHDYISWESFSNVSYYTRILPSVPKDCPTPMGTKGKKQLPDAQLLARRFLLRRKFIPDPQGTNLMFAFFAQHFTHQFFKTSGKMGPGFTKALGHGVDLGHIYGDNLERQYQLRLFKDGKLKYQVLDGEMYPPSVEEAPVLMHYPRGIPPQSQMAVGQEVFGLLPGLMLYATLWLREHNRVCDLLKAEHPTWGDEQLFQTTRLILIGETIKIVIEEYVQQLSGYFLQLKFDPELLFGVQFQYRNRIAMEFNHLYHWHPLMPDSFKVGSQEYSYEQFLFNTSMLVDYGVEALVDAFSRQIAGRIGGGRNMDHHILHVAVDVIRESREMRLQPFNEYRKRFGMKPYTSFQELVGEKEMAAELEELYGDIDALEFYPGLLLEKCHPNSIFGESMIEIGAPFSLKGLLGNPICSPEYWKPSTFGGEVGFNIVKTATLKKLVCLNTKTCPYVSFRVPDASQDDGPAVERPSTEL

Row | SMILES | oral ED50 against LTB4 [1] [mg/kg] | IC50 [2] [nM] | IC50 [3] [µM]
1 | COC1(c2cccc(OCc3ccc4c(ccc(=O)n4C)c3)c2)CCOCC1 [4-[3-(1,2-dihydro-1-methyl-2-oxoquinolin-6-ylmethoxy)phenyl]-4-methoxytetrahydropyran] | 3 |  | 
2 | COC1(c2cc(F)cc(OCc3ccc4ncccc4c3)c2)CCOCC1 [4-[5-fluoro-3-(6-quinolylmethoxy)phenyl]-4-methoxytetrahydropyran] | 8 | 100 | 
3 | COC1(c2cccc(OCC#Cc3ccccn3)c2)CCOCC1 [4-methoxy-4-[3-(3-(2-pyridyl)prop-2-yn-1-yloxy)phenyl]-tetrahydropyran] | < 100 | 2000 | > 40
